According to EP4796126A1, “COMBINATION OF CLDN18_2 ANTIBODY AND CHEMOTHERAPEUTIC DRUG AND USE THEREOF” (Jiangsu Aosaikang Biopharmaceutical Co., Ltd., priority 2023, dated 2025):

How the values were obtained:
KATO III/18.2 = test: Efficacy against subcutaneous xenograft tumors of human gastric cancer KATO III/18.2 in mice; type: in vivo, NOD-Scid mice
Procedure: (§1) NOD-Scid mice (7 weeks old, female) were purchased from Shanghai Lingchang Biotechnology Co., Ltd. Each mouse was subcutaneously inoculated with 1 × 10^7 KATO III/18.2 cells. When tumor volume reached 60 mm^3 to 150 mm^3, the mice were grouped according to tumor volume, and then the medicaments were administered intraperitoneally (IP) at an injection volume of 0.1 mL per 10 g of body weight.

Miapaca2/18.2 = test: Efficacy against subcutaneous xenograft tumors of human pancreatic cancer Miapaca2/18.2 in mice; type: in vivo
Procedure: as §1, with “Miapaca2/18.2” for “KATO III/18.2”, “volume” for “volume,”

Row | Compound | tumor growth inhibition (KATO III/18.2; Day 23 (first dose Day 0), M5 monoclonal antibody or Human IgG1 10 mg/kg IP BIW 6 times, oxaliplatin 8 mg/kg IP Q4D 3 times) [%] | maximum weight losses (KATO III/18.2; mice, on Day 10) [%] | tumor growth inhibition (Miapaca2/18.2; Day 14 (first dose Day 0), M5 monoclonal antibody or Human IgG1 10 mg/kg IP BIW 4 times, gemcitabine 75 mg/kg IP Q4D 2 times) [%] | maximum weight loss (Miapaca2/18.2; mice, on Day 7) [%] | mice died (Miapaca2/18.2; ten mice per group)
1 | O=C1[O][Pt]2([NH][C@@H]3CCCC[C@H]3[NH]2)[O]C1=O [oxaliplatin] | 31 | 5.5 |  |  | 
2 | Nc1ccn([C@@H]2O[C@H](CO)[C@@H](O)C2(F)F)c(=O)n1 [gemcitabine] |  |  | 53 | 9.2 | one out of ten
